Laboratory results published in patent publication US11485720B2, “Anti-infective agents” (University of Dundee, priority 2016, dated 2022).
Values after ≈ are worked out from the molar mass of the structure shown. Values joined by “and” are separate entries in the source; they are usually repeats but may differ in a detail not shown here. Equal values may be shown once. Read-outs that look alike come from different tables or passages of the source.

Tests used:
[1] = molecular target: Schistosoma mansoni (Sm) lysyl-tRNA synthetase; conditions: cited from earlier work
PfLysRS = PfLysRS (Plasmodium falciparum, UniProt Q8IDJ8); conditions: cited from earlier work
PfLysRS, sequence (Q8IDJ8 1-583): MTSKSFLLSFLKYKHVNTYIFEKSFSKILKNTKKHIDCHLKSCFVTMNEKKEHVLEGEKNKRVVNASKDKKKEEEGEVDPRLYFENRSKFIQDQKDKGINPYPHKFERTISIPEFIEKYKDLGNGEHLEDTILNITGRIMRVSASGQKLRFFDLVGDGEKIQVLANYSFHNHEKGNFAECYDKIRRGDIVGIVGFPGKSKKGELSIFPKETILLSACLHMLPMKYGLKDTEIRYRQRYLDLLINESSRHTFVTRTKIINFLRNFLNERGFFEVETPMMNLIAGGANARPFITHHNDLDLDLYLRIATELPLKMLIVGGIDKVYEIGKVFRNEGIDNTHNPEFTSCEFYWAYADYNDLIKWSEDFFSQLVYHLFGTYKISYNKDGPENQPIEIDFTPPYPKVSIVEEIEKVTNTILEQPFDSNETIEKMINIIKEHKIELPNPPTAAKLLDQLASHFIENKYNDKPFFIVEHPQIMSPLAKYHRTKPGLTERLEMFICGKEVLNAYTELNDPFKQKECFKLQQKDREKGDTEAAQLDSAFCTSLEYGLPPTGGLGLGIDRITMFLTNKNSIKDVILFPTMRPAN

[2] = cited from earlier work
[3] = test system: blood and liver stages of Plasmodium; conditions: cited from earlier work
THP-1 cells = experiment: THP-1 host cell count in intramacrophage Leishmania assay; format: cell-based; conditions: Homo sapiens, host cell toxicity, read-out: THP1 pEC50 (converted)
Procedure: The intramacrophage Leishmania assay was performed as described in de Rycker et al (Antimicrob Agents Chemother, 2013 July; 57(7):2913-22. doi: 10.1128/AAC.02398-12). Briefly, 1 μl of compound was pre-dispensed into 384 well sterile intermediary plates. For single point screening, amphotericin B was added to all wells of column 24 as a positive control (final concentration 2 μM) and DMSO to column 23. For potency determinations, ten-point, one in three dilution curves were created with the highest concentration being 50 μM and on each plate a control curve of amphotericin B was included. Controls were as follows: columns 11 and 12: DMSO, columns 23 and 24: amphotericin B (final concentration 2 μM). To the intermediary plates, 100 μl of THP-1 media was added and plates were shaken for >5 min to ensure complete mixing. THP-1 cells (8,000 per well, 50 μl) were plated into black clear-bottom 384 well plates (Corning) in presence of 10 nM PMA. After 20 min at room temperature, the plates were incubated at 37° C. under 5% CO2 in a humidified incubator for 75 h. The cells were then washed with […] sterile phosphate buffered saline (PBS) supplemented with 1 mM CaCl2, 0.5 mM MgCl2, 0.1% (w/v) bovine serum albumin (PBS-A) and amastigotes were added to all wells at a multiplicity of infection of 5 (40,000 amastigotes per well). After 40 min at room temperature, plates were returned to the incubator. Amastigotes were incubated in the presence of macrophages for 16 h. Any remaining extracellular amastigotes were subsequently removed with an overflow wash of 1 ml PBS-A per well (wash buffer is being aspirated from the top of the well as it is being dispensed) followed by addition of 25 μl of the compound pre-dilutions using a Matrix Hydra DT pipetting station. The final dilution of each compound was 200-fold. Plates were incubated for 72 h and then washed (250 μl PBS-A) and fixed (4% (v/v) formaldehyde-PBS, 30 min, room temperature). After fixation, the wells were washed with 250 μl PBS, stained (10 μg/ml DAPI, 0.4 μg ml-1 HCS Cellmask Deep Red in PBS+0.1% (v/v) Triton X-100, 30 min, room temperature) and washed with 250 μl PBS. Finally, PBS+0.05% (v/v) thimerosal was added to the wells, the plates were sealed and imaged on a high-content microscope (GE IN Cell 1000 or GE IN Cell 2000) using a 10× objective. Image analysis was carried out with GE IN Cell Analyzer 1000 Workstation using the “Multi Target Analysis” module. Settings for segmentation were as follows: nuclei: minimum area: 142.384 μm^2, sensitivity: 81, method: top-hat; cells: characteristic area: 2500 μm^2, sensitivity: 60, method: multiscale top-hat; organelles (amastigotes): granule size 1-3, 3 scales, sensitivity: 90, detection in entire cell. […]

Cryptosporidium parvum [4] = experiment: In vitro Crytosporidium inhibition assay; format: cell-based; conditions: for EC50: Cryptosporidium parvum, read-out: Cryptosporidium parvum pEC50 (converted)
From the text: Assay Method for Measurement of In Vitro Inhibition of Crytosporidium.
These experiments were run in accordance with the method of Besssoff et. al. Antimicrob. Agents Chemother. 2013, 57:1804-1814. Results from these experiments are provided in the Experimental Results hereinafter.

Plasmodium falciparum = experiment: Anti-malarial in vivo efficacy, Plasmodium falciparum SCID mouse model; conditions: 20 mg/kg, 4 days
From the text: Measurement of Anti-Malarial In Vivo Efficacy The in vivo measurement of the potential efficacy of compounds of formula (I) in a malarial model has been carried out. These in vivo experiments were run in accordance with the method published in Jimenez-Diaz, M. B. et al., Antimicrob. Agents Chemother. 53, 4533-4536, (2009). Results from these experiments are provided in the Experimental Results hereinafter.

Leishmania donovani [5] = experiment: Ld-cAxAm-TP-pMIC assay; format: cell-based; conditions: read-out: Ld-cAxAm-TP-pMIC pEC50 (converted)
Leishmania donovani [6] = experiment: Leishmania donovani intramacrophage inhibition assay (Ld-INMAC); format: cell-based; conditions: intramacrophage amastigotes in THP-1 cells, read-out: Ld-INMAC pEC50 (converted)
Procedure: Assay Method for Measurement of In Vitro Inhibition of Leishmania donovani.
These experiments were run in accordance with the method as detailed herein and results from these experiments are provided in the Experimental Results hereinafter.
The intramacrophage Leishmania assay was performed as described in de Rycker et al (Antimicrob Agents Chemother, 2013 July; 57(7):2913-22. doi: 10.1128/AAC.02398-12). Briefly, 1 μl of compound was pre-dispensed into 384 well sterile intermediary plates. For single point screening, amphotericin B was added to all wells of column 24 as a positive control (final concentration 2 μM) and DMSO to column 23. For potency determinations, ten-point, one in three dilution curves were created with the highest concentration being 50 μM and on each plate a control curve of amphotericin B was included. Controls were as follows: columns 11 and 12: DMSO, columns 23 and 24: amphotericin B (final concentration 2 μM). To the intermediary plates, 100 μl of THP-1 media was added and plates were shaken for >5 min to ensure complete mixing. THP-1 cells (8,000 per well, 50 μl) were plated into black clear-bottom 384 well plates (Corning) in presence of 10 nM PMA. After 20 min at room temperature, the plates were incubated at 37° C. under 5% CO2 in a humidified incubator for 75 h. The cells were then washed with […] sterile phosphate buffered saline (PBS) supplemented with 1 mM CaCl2, 0.5 mM MgCl2, 0.1% (w/v) bovine serum albumin (PBS-A) and amastigotes were added to all wells at a multiplicity of infection of 5 (40,000 amastigotes per well). After 40 min at room temperature, plates were returned to the incubator. Amastigotes were incubated in the presence of macrophages for 16 h. Any remaining extracellular amastigotes were subsequently removed with an overflow wash of 1 ml PBS-A per well (wash buffer is being aspirated from the top of the well as it is being dispensed) followed by addition of 25 μl of the compound pre-dilutions using a Matrix Hydra DT pipetting station. The final dilution of each compound was 200-fold. Plates were incubated for 72 h and then washed (250 μl PBS-A) and fixed (4% (v/v) formaldehyde-PBS, 30 min, room temperature). After fixation, the wells were washed with 250 μl PBS, stained (10 μg/ml DAPI, 0.4 μg ml-1 HCS Cellmask Deep Red in PBS+0.1% (v/v) Triton X-100, 30 min, room temperature) and washed with 250 μl PBS. Finally, PBS+0.05% (v/v) thimerosal was added to the wells, the plates were sealed and imaged on a high-content microscope (GE IN Cell 1000 or GE IN Cell 2000) using a 10× objective. Image analysis was carried out with GE IN Cell Analyzer 1000 Workstation using the “Multi Target Analysis” module. […]

[7] = molecular target: T1, Plasmodium falciparum lysyl t-RNA synthetase (Pf-KRS1) (Plasmodium falciparum, UniProt Q8IDJ8); experiment: Pf-KRS1 inhibition biochemical assay (Kinase-Glo, ATP depletion)
T1 construct: Pf KRS1-; made in house; host or cells: E. coli BL21 (DE3)
T1 sequence (Q8IDJ8 entry or part of it, looked up, natural form): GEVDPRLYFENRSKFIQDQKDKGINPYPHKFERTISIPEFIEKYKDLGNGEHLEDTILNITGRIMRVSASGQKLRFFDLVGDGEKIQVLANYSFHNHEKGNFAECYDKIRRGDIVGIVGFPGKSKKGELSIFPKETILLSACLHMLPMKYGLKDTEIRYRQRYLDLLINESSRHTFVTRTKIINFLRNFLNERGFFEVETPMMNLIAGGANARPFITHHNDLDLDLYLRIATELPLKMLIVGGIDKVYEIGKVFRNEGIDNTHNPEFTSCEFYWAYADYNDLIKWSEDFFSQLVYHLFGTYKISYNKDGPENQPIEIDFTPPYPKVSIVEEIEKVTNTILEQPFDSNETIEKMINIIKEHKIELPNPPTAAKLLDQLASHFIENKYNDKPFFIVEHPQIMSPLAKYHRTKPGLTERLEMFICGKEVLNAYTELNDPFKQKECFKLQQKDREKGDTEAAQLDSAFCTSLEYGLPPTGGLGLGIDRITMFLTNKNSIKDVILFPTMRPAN
Procedure, shortened: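 Recombinant Pf-KRS1 (75 nM working concentration) in HEPES/KOH/MgCl2/KCl buffer with 3 μM ATP, 60 μM L-lysine, 0.4 mg/ml yeast tRNA and pyrophosphatase; compounds at 50 μM–2.5 nM final. Reaction ran 5 h at room temperature, then remaining ATP was read by Kinase-Glo luminescence. IC50 came from nonlinear fits of % inhibition against controls.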

Hep G2 = Hep G2 in-vitro cytotoxicity assay; format: cell-based; conditions: Homo sapiens, HepG2, read-out: Hs HEPG2 pEC50 (converted)
Procedure, shortened: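 Hep G2 human hepatocyte carcinoma cells serve as a general mammalian cell toxicity indicator, following the Mersch-Sundermann procedure.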

M. tuberculosis H37Rv = experiment: In vitro inhibition of M. tuberculosis H37Rv (MIC, resazurin); format: cell-based; conditions: Mycobacterium tuberculosis, read-out: Mtb MIC
[8] = test system: Plasmodium falciparum strain 3D7; experiment: Plasmodium falciparum 3D7 in vitro growth inhibition (SYBRgreen I); format: cell-based; conditions: Plasmodium falciparum, 3D7; read-out: pEC50 for Pf 3D7 (converted)
Procedure, shortened: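 10-point, 1-in-3 dilution series from a top concentration of 50 μM; parasite growth read as SYBRgreen I fluorescence on double-stranded DNA (ex 485/em 528 nm). EC50 = concentration causing 50% parasite death, from at least 3 independent experiments.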

Cryptosporidium parvum [9] = experiment: Anti-Cryptosporidium in vivo efficacy, NOD SCID gamma mouse model; conditions: 50 mg/kg, twice a day (bid), 4 days
From the text: Measurement of Anti-Cryptosporidium In Vivo Efficacy
The in vivo measurement of the potential efficacy of compounds of formula (I) in two cryptosporidium models has been carried out.
The cryptosporidiosis NOD SCID gamma mouse model were run as follows: Male NOD SCID gamma mice (NOD.Cg-Prkdc^scid Il2rg^tm1Wjl/SzJ, Jackson Labs) were infected approximately 2 weeks post weaning with 10^5 C. parvum Iowa strain oocysts by oral gavage. Four mice were used per experimental group. This establishes a chronic, asymptomatic infection of the small intestine, cecum, and biliary tree. Fecal parasite shedding is monitored by quantitative PCR to amplify C. parvum DNA. One week after infection (which is the timing with which shedding becomes uniformly detected), compounds are dosed by oral gavage based. Treatment continued for four days total. Fecal oocyst shedding is reported on day 1 (7 days after initial infection with sample taken just prior to the first dose of compound) and day 5 (1 day after completion of the last dose).

[10] = read-out: Pf-KRS pIC50 (converted)

SMILES	EC50 (Cryptosporidium parvum [4])	IC50 [7, 10]	EC50 (Hep G2)	EC50 [8]	% Reduction in parasitaemia (Cryptosporidium parvum [9])	other results
C[C@H]1CCC[C@H](C[C@H]2Cc3cc(O)cc(O)c3C(=O)O2)O1 [Cladosporin, cladosporin]						IC50 ([1]; Sharma et al., read-out: Sm LysRS IC50): 97 nM; selectivity vs HsLysRS ([1]; Sm LysRS vs HsLysRS): more than 60 fold; selectivity vs HsLysRS (PfLysRS): more than 100 fold; bioavailability [2]: poorly bioavailable; inhibition of blood and liver stages of Plasmodium [3]: nanomolar inhibitor
O=C(NCC1(O)CCC(F)(F)CC1)c1cc(=O)c2cc(F)ccc2o1 [Example 54, N-[(4,4-difluoro-1-hydroxy-cyclohexyl)methyl]-6-fluoro-4-oxo-chromene-2-carboxamide]	1260 nM	126 nM and 251 nM	50.1 µM			EC50 (THP-1 cells): 50.1 µM; Cryptosporidium parvum pEC50 (Cryptosporidium parvum [4]): 5.8; % Reduction in parasitaemia (Plasmodium falciparum): 99.2%; EC50 (Leishmania donovani [5]): 12.6 µM; EC50 (Leishmania donovani [6]): 31.6 µM
O=C(NCC1(O)CCCCC1)c1cc(=O)c2cc(F)cc(O)c2o1 [Example 74, 6-fluoro-8-hydroxy-N-((1-hydroxycyclohexyl)methyl)-4-oxo-4H-chromene-2-carboxamide]	39.8 nM	50.1 nM	31.6 µM	63.1 nM	92.5%	MIC (M. tuberculosis H37Rv): 25 µM (≈ 8.38 µg/mL)
O=C(NCC1(O)CCCCC1)c1cc(=O)c2ccc(F)c(O)c2o1 [Example 77, 7-fluoro-8-hydroxy-N-((1-hydroxycyclohexyl)methyl)-4-oxo-4H-chromene-2-carboxamide]	126 nM		39.8 µM	126 nM	99.6%	IC50 ([7]; Pf-KRS pIC50): 100 nM
O=C(NCC1CCCCC1)c1cc(=O)c2ccc(F)c(O)c2o1 [Example 78, N-(cyclohexylmethyl)-7-fluoro-8-hydroxy-4-oxo-4H-chromene-2-carboxamide]	1 nM	79.4 nM	20 µM	100 nM	99.4%	
